Measured values published in US20090232750A1, “Compositions for indoor tanning” (priority 2008, published 2009).

How the values were obtained:
skeletal muscle ATP = conditions: oral administration; U.S. Pat. Nos. 6,159,942 and 6,534,480; cited from earlier work
skin = experiment: Preliminary experiments: D-ribose without penetrant applied to wound or skin; format: in vivo
Description: Since the object of this invention is to deliver active ingredient to the basal and dermal cells below the epidermis, when the skin barrier is intact, it has been found necessary to include a penetrant in the solutions, lotions or creams of this invention. Such a penetrant will enhance the delivery of active ingredient by transitory disruption of the cell to cell connections of the skin. Penetrants in general include ionic detergents, non-ionic detergents, fatty acids, organic solvents and oils. Certain constructs such as liposomes and nanoparticles can also be used to transport active ingredient through the stratum corneum barrier. It is well known in the industry to select a penetrant with the desired characteristics, which vary in effect from the intense penetration of the solvent dimethyl sulfoxide (DMSO) which cause the rapid co-transport past the skin barrier of any agent present on the skin, to the milder action of dilute ethanol. Of recent interest are the constructs termed liposomes and nanoparticles, which are molecules that form closed structures that can incorporate an active ingredient. Liposomes and nanoparticles can readily penetrate otherwise impermeable barriers.
The skin is a barrier. […]

melanocytes [1] = experiment: 4% D-ribose lotion on back of forearm, applied one to four days (melanocyte stimulation vs Maillard reaction); format: in vivo
Description: In order to ascertain that the tan color was due to the stimulation of melanocytes and not to a chemical reaction such as the Maillard reaction, the subject applied 4% D-ribose in the above referenced lotion to the back of the forearm. The lotion was applied one day only; two days; three days; and four days. […] By one week after application, the areas to which lotion was applied for one or two days began fading and were completely faded by ten days. The areas to which was applied for three or four days also began fading at one week after application and were completely faded by ten days after last application. The subject had areas of vitilago, a scar and freckles.

[2] = test system: cultured normal human fibroblasts; conditions: cited from earlier work
skin (tanning) = experiment: D-ribose lotion tested against commercial tanning creams on upper front thigh; format: in vivo
Protocol: In other experiments, D-ribose was tested against Jergen's Dark Tanning cream on the upper front thigh of the subject. Each was applied liberally over a six inch by four inch area twice a day for five days. The “tanning” agent in this cream is unknown. The areas on which the Jergen's was applied tanned in 36 hours, hit maximum darkness in two days and faded in eight days. […] In this test, the D-ribose caused maximum darkness in five days and persisted for two weeks after application was discontinued.
D-ribose was also tested against l'Oreal Sublime Glow as above. The active ingredients in this cream were 7.5% octinoate, octsalate 5.0%, octocrylene 3.0% and oxybenzone 6.17%. […] This color began fading within two days of last application and was completely faded within a week.
The evenness of the D-ribose tanned areas can be attributed to the natural production of melanin due to the stimulation by D-ribose penetrating and diffusing to the dermal cells.

[3] = test system: fibroblasts in the basal layer; conditions: cited from earlier work
lymphocytes = conditions: cell culture; U.S. Pat. No. 6,663,859; cited from earlier work
melanocytes [4] = experiment: Effect of D-ribose on melanocytes in vivo: four concentrations in commercial lotion on inside forearm; conditions: for Days to maximum tan / Days to first sign of tanning: twice a day, inside forearm; for Days to first sign of tanning: no sun light; for Spread of tanned area beyond the application site: two inch application area
Description: To determine the effect of D-ribose on melanocytes, the dermal cells that produce a tanning color when exposed to sunlight, four concentrations of D-ribose suspended in a commercial lotion were applied with a cotton applicator twice a day to two inch areas of A subject's inside forearm. The test area was not exposed to sun light. The composition of the lotion was: water, glycerin, mineral oil, stearic acid, glycol stearate, stearamide AMP, petrolatum, dimethicone, chamomile, helianthus, sambucas, theobroma, seed butter, glyceryl, stearate, cetyl alcohol, triethanolamine, acetylated lanolin alcohol and cetyl acetate. The results are shown in Table I. Application was stopped after 11 days. Color began to fade at 14 days in all cases and was gone about two weeks after last application. […] The color spread, presumably because of lateral diffusion of the D-ribose within the dermis, stimulating melanocytes outside the application site. The spread area decreased in intensity of color as the diffused D-ribose decreased in concentration.

[5] = 4% D-ribose lotion applied for one or two days
[6] = 4% D-ribose lotion applied for three or four days
[7] = upper front thigh, twice a day for five days
[8] = composition containing 1% D-ribose, female volunteers
[9] = all cases, application stopped after 11 days

SMILES: O=C[C@H](O)[C@H](O)[C@H](O)CO [D-ribose]
- Effect on ATP levels in skeletal muscle (skeletal muscle ATP): raises ATP levels in skeletal muscle
- Effect on tanning (skin; D-ribose in water applied to the skin, no penetrant): no effect on tanning
- Effect on improving skin (skin; preliminary application of ribose without penetrant): unsuccessful
- Tanning by day three (melanocytes [1]; 4% D-ribose in lotion, back of forearm, all four areas (applied one, two, three, four days)): lightly tanned
- Time after application at which areas began fading (melanocytes [1]; [5]): one
- Time until completely faded (melanocytes [1]; [5]): ten
- Time after application at which areas began fading (melanocytes [1]; [6]): one
- Time after last application until completely faded (melanocytes [1]; [6]): ten
- Tanning of areas of vitilago and scarring (melanocytes [1]; subject's areas of vitilago and a scar): did not tan
- Effect on freckles (melanocytes [1]; subject's freckles): got darker
- Effect on fibroblasts subjected to hypoxic shock [2]: protective effect
- Uniformity of tanned area (skin (tanning); all experiments): uniform and not blotchy
- Persistence of tan after application was discontinued (skin (tanning); [7]): two
- Time to maximum darkness (skin (tanning); [7]): five
- Spread of color beyond area of application (skin (tanning); upper front thigh, twice a day for five days, D-ribose at 4% in lotion): spread beyond the area of application
- Effect on face wrinkles [3, 8]: reduce face wrinkles
- Tanning effect [3, 8]: No tanning effect
- Melanin formation ([3]; lower amounts of D-ribose, as noted in the '707 application): do not stimulate melanin formation
- Effect on growth of lymphocytes (lymphocytes): stimulates the growth of lymphocytes
- Days to maximum tan (melanocytes [4]; 1.0% w/v D-ribose in lotion): No tanning
- Days to first sign of tanning (melanocytes [4]; 1.0% w/v D-ribose in lotion): No tanning
- Color of spread area versus center of application (melanocytes [4]; 4% w/v D-ribose): diameter. The spread area is not as dark as the
- Days to maximum tan (melanocytes [4]; 4% w/v D-ribose in lotion): Six
- Days to first sign of tanning (melanocytes [4]; 4% w/v D-ribose in lotion): Four
- Diameter of tanned area (melanocytes [4]; 4% w/v D-ribose, at six days): the tanned area is about four inches in
- Spread of tanned area beyond the application site (melanocytes [4]; 4% w/v D-ribose, at six days): two inches beyond the application site, that is,
- Color of tan compared with other concentration (melanocytes [4]; 6% w/v D-ribose): A little darker than the 4%, the tanned area has
- Diameter of tanned area (melanocytes [4]; 6% w/v D-ribose): site, that is, the tanned area is about four inches
- Days to maximum tan (melanocytes [4]; 6% w/v D-ribose in lotion): Six
- Days to first sign of tanning (melanocytes [4]; 6% w/v D-ribose in lotion): Four
- Spread of tanned area beyond the application site (melanocytes [4]; 6% w/v D-ribose): spread about two inches beyond the application
- Color of tan compared with other concentration (melanocytes [4]; 10% w/v D-ribose): the same as for the 6%.
- Diameter of tanned area (melanocytes [4]; 10% w/v D-ribose): is now about eight inches in diameter. Color is
- Days to maximum tan (melanocytes [4]; 10% w/v D-ribose in lotion): Six
- Days to first sign of tanning (melanocytes [4]; 10% w/v D-ribose in lotion): Four
- Spread of tanned area beyond the application site (melanocytes [4]; 10% w/v D-ribose): The tanned area has spread about three inches
- Day at which color began to fade (melanocytes [4]; [9]): 14 days
- Time after last application until color was gone (melanocytes [4]; [9]): about two
- Intensity of tan reached (melanocytes [4]; fair-skinned subject): medium intensity
- Quality of tan color (melanocytes [4]; fair-skinned subject): identical to that resulting from normal sun tanning
